In this experiment the test system is C57BL/6J mice. The experiment is described as follows: Biochemical analysis of blood (plasma). In kind it is in vivo. As to conditions: HFD mice. How it is done: When brought in, the animal was inspected and weighed. […] Xenical was used as a positive control. […] Blood glucose, AST, ALT, and BUN were measured using a chemical analyzer (Fuji DRI-CHEM 3500i, Fuji Photo Film, Ltd., Tokyo, Japan), total cholesterol and high density lipoprotein (HDL)-cholesterol (hereinafter referred to as HDL-C) were measured using a LabAssay™ Cholesterol kit (Wako, Osaka, Japan), and a low-density lipoprotein (LDL)-cholesterol (hereinafter referred to as LDL-C) was calculated using the following Equation 2. In addition, TG was analyzed using TG assay kits (Abcam, Cambridge, MA), respectively. LDL-C=Total cholesterol−{(HDL-C)+(TG/5)} [EQUATION 2]

Data on 1 compound can be found in patent US20240173363A1, “MICROBIOME COMPOSITION OF HALOPHILIC BACILLUS VELEZENSIS KMU01 STRAIN FERMENTED CULTURE SUPERNATANT WITH ANTI-OBESITY EFFECT” (KOOKMINBIO, CORP., priority 2022, published 2024).

With `CCCCCCCCCCC[C@@H](C[C@@H]1OC(=O)[C@H]1CCCCCC)OC(=O)[C@H](CC(C)C)NC=O` [Xen], for the setting “Xenical 50 mg/kg/day, 13 weeks, p<0.05”, the “blood TG compared to the high-fat diet group” value is recorded as “significantly reduced”. Also, the LDL-C (plasma, 13 weeks oral, calculated by Equation 2, mean ± SD) was 31.55 ± 17.44 mg/dL.
